Reference: PMC10174618, “Monoterpenoid aryl hydrocarbon receptor allosteric antagonists protect against ultraviolet skin damage in female mice” (Nature Communications, 2023)

Columns and labels:
Assay in all cases: biochemical
Design in all cases: KINOMEscan scanMAX active site-directed competition binding assay, percent of control, 468 kinases
Details in all cases: competition binding, percent of control
[1] = biological target: ALK (Homo sapiens, UniProt Q9UM73)
Outline: (§1)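 KINOMEscan active site-directed competition binding assay against 468 human kinases with 100 μM S-carvone. Binding expressed as % of control, with 35% of control as the inhibition threshold.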

[2] = biological target: EGFR(L858R,T790M) (Homo sapiens, UniProt P00533, L858R/T790M)
Outline: as §1

[3] = biological target: WEE1 (Homo sapiens, UniProt P30291)
Outline: as §1

[4] = biological target: EPHA7 (Homo sapiens, UniProt Q15375)
Outline: as §1

[5] = biological target: MAP4K2 (Homo sapiens, UniProt Q12851)
Outline: as §1

[6] = biological target: T1, YANK3 (Homo sapiens, UniProt Q86UX6)
T1 construct: gene STK32C
Outline: as §1

[7] = biological target: CDKL1 (Homo sapiens, UniProt Q00532)
Outline: as §1

[8] = biological target: T2, PKAC-beta (Homo sapiens, UniProt P22694)
T2 construct: gene PRKACB
Outline: as §1

[9] = biological target: SGK2 (Homo sapiens, UniProt Q9HBY8)
Outline: as §1

[10] = biological target: DAPK2 (Homo sapiens, UniProt Q9UIK4)
Outline: as §1

[11] = biological target: FGFR3(G697C) (Homo sapiens, UniProt P22607, G697C)
Outline: as §1

[12] = biological target: T3, IKK-beta (Homo sapiens, UniProt O14920)
T3 construct: gene IKBKB
Outline: as §1

[13] = biological target: GRK3 (Homo sapiens, UniProt P35626)
Outline: as §1

[14] = biological target: T4, PIK4CB (Homo sapiens, UniProt Q9UBF8)
T4 construct: gene PI4KB
Outline: as §1

[15] = biological target: T5, ABL1(H396P)-phosphorylated (Homo sapiens, UniProt P00519, H396P)
T5 construct: phosphorylated
Outline: as §1

[16] = biological target: DDR1 (Homo sapiens, UniProt Q08345)
Outline: as §1

[17] = biological target: CAMK4 (Homo sapiens, UniProt Q16566)
Outline: as §1

[18] = biological target: PRKX (Homo sapiens, UniProt P51817)
Outline: as §1

[19] = biological target: T6, ADCK4 (Homo sapiens, UniProt Q96D53)
T6 construct: gene COQ8B
Outline: as §1

[20] = biological target: WNK3 (Homo sapiens, UniProt Q9BYP7)
Outline: as §1

[21] = biological target: ACVR1B (Homo sapiens, UniProt P36896)
Outline: as §1

[22] = biological target: PRKD1 (Homo sapiens, UniProt Q15139)
Outline: as §1

Sequence of GRK3 (P35626 whole entry): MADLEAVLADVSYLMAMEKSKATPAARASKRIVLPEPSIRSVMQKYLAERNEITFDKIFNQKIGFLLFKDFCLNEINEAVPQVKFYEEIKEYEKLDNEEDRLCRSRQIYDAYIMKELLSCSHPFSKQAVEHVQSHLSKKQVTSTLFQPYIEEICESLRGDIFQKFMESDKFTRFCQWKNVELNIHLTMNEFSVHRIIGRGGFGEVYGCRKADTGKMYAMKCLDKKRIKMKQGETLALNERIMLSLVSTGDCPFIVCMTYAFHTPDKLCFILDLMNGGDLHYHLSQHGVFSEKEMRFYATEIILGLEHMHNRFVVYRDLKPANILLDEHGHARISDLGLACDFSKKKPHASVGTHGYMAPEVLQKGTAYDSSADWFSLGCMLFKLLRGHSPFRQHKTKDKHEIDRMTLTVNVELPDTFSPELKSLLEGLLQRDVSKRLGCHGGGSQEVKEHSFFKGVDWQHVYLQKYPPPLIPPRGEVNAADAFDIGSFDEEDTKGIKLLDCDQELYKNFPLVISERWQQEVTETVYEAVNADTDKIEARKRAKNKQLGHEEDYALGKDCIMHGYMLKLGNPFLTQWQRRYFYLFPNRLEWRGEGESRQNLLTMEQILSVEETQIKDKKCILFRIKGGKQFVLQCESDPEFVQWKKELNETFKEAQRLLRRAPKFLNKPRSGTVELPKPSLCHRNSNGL
T6 sequence (Q96D53 whole entry): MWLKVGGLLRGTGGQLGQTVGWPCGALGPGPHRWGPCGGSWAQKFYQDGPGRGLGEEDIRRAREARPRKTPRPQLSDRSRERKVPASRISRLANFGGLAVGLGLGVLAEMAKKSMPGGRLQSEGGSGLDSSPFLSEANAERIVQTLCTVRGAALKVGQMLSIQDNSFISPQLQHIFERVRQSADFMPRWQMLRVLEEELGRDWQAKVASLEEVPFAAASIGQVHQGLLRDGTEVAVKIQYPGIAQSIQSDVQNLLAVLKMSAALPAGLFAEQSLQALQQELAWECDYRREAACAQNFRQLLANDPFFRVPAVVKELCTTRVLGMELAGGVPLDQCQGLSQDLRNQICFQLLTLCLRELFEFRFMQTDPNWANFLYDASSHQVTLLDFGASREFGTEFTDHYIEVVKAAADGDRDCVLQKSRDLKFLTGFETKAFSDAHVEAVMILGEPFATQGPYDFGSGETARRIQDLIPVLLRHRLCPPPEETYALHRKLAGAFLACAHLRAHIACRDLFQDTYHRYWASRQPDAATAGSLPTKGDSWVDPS
Sequence of SGK2 (Q9HBY8 whole entry): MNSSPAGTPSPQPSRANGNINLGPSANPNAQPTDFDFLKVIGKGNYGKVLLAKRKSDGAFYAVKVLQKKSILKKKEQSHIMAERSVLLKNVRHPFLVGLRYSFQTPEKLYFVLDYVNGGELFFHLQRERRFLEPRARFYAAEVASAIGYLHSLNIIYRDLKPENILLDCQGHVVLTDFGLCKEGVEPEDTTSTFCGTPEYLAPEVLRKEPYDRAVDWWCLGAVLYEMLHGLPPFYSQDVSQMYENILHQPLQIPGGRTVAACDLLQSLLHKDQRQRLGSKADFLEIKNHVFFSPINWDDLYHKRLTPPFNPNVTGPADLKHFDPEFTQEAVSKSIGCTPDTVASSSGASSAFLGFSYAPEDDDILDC
Sequence of PRKX (P51817 whole entry): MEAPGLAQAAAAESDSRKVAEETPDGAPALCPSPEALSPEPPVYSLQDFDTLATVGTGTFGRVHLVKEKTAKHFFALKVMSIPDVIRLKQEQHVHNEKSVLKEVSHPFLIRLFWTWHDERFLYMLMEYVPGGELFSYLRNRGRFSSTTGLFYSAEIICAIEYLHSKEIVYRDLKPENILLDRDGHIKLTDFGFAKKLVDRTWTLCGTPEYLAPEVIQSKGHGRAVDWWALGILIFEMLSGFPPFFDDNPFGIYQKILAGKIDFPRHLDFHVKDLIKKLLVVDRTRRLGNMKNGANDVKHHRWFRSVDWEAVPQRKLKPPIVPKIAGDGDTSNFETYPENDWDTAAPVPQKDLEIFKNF
Sequence of MAP4K2 (Q12851 whole entry): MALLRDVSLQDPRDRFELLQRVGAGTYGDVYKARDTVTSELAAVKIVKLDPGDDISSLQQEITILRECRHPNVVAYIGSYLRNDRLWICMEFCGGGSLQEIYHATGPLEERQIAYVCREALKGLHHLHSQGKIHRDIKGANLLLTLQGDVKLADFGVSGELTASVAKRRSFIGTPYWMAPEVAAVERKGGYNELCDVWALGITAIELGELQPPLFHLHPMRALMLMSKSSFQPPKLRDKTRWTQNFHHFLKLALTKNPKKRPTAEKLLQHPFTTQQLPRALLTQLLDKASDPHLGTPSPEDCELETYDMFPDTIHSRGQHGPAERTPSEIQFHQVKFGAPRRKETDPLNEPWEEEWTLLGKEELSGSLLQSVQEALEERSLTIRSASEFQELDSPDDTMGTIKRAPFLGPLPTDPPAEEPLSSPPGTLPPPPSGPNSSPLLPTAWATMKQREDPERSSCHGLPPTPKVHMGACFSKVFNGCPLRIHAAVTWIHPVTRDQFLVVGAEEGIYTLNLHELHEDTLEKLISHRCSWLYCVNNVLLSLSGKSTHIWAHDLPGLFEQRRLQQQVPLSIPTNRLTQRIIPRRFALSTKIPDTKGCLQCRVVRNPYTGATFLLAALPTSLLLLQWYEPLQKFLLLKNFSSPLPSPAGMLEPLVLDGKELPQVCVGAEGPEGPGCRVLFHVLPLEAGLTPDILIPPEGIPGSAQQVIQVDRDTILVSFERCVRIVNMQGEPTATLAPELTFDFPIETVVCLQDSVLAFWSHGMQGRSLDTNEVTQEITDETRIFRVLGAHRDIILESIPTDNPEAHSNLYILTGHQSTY
Sequence of CAMK4 (Q16566 whole entry): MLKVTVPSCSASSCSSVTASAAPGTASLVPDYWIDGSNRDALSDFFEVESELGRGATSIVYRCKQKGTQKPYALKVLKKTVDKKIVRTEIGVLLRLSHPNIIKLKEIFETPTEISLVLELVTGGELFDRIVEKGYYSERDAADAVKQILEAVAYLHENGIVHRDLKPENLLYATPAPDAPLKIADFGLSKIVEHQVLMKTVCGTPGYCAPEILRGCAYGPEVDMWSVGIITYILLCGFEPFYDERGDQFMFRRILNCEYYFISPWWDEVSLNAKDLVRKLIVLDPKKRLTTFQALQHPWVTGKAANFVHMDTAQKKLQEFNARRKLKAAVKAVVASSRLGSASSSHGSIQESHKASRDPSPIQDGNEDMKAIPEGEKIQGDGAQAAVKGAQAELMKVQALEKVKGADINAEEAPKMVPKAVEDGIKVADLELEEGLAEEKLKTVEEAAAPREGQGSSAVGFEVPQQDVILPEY
Sequence of ALK (Q9UM73 whole entry): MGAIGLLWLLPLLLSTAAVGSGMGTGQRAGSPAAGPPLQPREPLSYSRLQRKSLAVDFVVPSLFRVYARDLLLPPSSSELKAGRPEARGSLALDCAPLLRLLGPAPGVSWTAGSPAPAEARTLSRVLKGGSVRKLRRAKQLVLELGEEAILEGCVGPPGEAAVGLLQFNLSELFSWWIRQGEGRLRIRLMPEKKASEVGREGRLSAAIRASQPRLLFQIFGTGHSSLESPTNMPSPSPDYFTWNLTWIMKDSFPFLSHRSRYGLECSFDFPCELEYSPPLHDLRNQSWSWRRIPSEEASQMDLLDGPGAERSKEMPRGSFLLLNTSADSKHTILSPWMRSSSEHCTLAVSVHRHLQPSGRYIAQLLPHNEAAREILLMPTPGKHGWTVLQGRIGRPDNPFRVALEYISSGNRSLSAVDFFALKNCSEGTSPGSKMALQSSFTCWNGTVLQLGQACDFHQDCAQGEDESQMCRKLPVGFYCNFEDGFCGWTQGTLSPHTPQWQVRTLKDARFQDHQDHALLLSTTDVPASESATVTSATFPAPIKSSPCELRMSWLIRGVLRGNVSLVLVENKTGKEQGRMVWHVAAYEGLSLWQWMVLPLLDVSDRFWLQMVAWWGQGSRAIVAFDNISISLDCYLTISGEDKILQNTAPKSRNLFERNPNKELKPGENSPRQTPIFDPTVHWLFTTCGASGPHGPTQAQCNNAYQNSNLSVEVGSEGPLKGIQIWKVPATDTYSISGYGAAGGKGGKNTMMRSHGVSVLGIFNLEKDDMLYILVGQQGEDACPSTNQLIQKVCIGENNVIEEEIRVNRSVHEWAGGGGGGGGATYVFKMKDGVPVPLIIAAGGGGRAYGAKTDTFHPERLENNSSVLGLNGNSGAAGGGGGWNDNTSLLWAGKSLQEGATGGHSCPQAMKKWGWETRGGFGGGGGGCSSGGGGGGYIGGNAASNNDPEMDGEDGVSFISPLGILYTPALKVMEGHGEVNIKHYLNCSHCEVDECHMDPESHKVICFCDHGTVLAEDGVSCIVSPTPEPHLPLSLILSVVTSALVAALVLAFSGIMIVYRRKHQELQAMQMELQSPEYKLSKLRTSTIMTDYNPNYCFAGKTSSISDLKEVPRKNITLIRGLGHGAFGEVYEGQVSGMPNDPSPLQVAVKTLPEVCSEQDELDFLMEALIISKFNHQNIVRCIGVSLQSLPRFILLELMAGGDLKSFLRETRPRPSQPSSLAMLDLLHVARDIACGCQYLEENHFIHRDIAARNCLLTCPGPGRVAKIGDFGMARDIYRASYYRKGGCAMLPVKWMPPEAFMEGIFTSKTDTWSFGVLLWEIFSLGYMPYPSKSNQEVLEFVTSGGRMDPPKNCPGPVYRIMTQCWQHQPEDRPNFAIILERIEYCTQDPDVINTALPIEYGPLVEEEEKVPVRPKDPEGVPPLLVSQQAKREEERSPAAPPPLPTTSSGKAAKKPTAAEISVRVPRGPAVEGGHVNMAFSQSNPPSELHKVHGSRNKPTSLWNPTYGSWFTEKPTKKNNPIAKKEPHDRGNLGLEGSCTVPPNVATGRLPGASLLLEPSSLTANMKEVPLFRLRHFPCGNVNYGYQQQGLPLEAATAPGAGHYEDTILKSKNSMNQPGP

remaining binding at 100 µM [1]: 73% | remaining binding at 100 µM [2]: 60% | remaining binding at 100 µM [3]: 81% | remaining binding at 100 µM [4]: 91% | remaining binding at 100 µM [5]: 94% | remaining binding at 100 µM [6]: 91% | remaining binding at 100 µM [7]: 70% | remaining binding at 100 µM [8]: 84% | remaining binding at 100 µM [9]: 68% | remaining binding at 100 µM [10]: 79% | remaining binding at 100 µM [11]: 75% | remaining binding at 100 µM [12]: 72% | remaining binding at 100 µM [13]: 58% | remaining binding at 100 µM [14]: 65% | remaining binding at 100 µM [15]: 65% | remaining binding at 100 µM [16]: 90% | remaining binding at 100 µM [17]: 70% | remaining binding at 100 µM [18]: 100% | remaining binding at 100 µM [19]: 92% | remaining binding at 100 µM [20]: 100% | remaining binding at 100 µM [21]: 98% | remaining binding at 100 µM [22]: 61%
SMILES: C=C(C)[C@H]1CC=C(C)C(=O)C1 [S-carvone]
